Earlier results in US9862652B2, “Microencapsulated nitrification inhibitor composition” (DOW AGROSCIENCES LLC, priority 2014, dated 2018).

Clc1cccc(C(Cl)(Cl)Cl)n1 [nitrapyrin, 2-chloro-6-(trichloromethyl)pyridine]
nitrapyrin dissolved by Hallcomid M-8-10 (ambient temperature): about 50 weight percent
nitrapyrin dissolved by Aromatic 100 (ambient temperature (24° C.)): about 51 weight percent
nitrapyrin dissolved by cyclohexanone (ambient temperature (24° C.)): about 60 wt %
nitrapyrin dissolved by Aromatic 150 (−10° C.): about 29 weight percent
